According to article PMC8938680 (2022):

System: E. coli thiM TPP riboswitch (ITC construct) (RNA, riboswitch) GGCAGUACUCGGGGUGCCCUUCUGCGUGAAGGCUGAGAAAUACCCGUAUCACCUGAUCUGGAUAAUGCCAGCGUAGGGAAGUGCUG
Test: ITC
Conditions: 1 mM MgCl2, 200 mM potassium acetate; 100 mM HEPES-Na pH 8.0, 25 °C

KT	KL	Structure (SMILES)
11 µM		Cc1ncc(C[n+]2csc(CCO)c2C)c(N)n1
	19 nM	Cc1ncc(C[n+]2csc(CCOP(=O)(O)CP(=O)(O)O)c2C)c(N)n1
